Source: patent publication US20040247537A1, “Uv-screening peptide-flavonoid conjugates” (priority 2001, published 2004)
Values joined by “and” are separate entries in the source; they are usually repeats but may differ in a detail not shown here. Equal entries are not always repeated.

Experiments:
[1] = Chelating capacity: free Fe2+ by ion chromatography; format: physicochemical; details: test samples a: 1 millimol/l FeSO4 solution mixed 1:1 with test solution, ethanol:water 1:3, 10 minutes at 37° C.; iron alone 0.50
From the text: (§1) The amount of free Fe^2+ and Fe^3+ can be determined by ion-chromatography.
(§2) Gelatin has a very high affinity to Dionex column material that is used in the determination of iron ions. Gelatin will not elute from the column and thereby changes the characteristics of the column so that the separation is not stable. To prevent this a solid state extraction (SPE) column is used to separate the metal ions from the gelatin matrix. After this pretreatment the sample is conservated with 10 millimolar hydrochloric acid. The sample is then injected into the ion-chromatograph. The metal-ions form a complex with the pyridine-2,6-dicarboxylic acid (PDCA). The complexed iron ions are then separated by their differences in affinity to the column material, which has as well anion as cation characteristics (mixed mode). […] The signals obtained at the retention times known for Fe^2+ and Fe^3+ are proportional to the concentrations, which are calculated from a calibration curve.
(§3) A Dionex OnGuard-RP P/N 039595 column was conditioned with 5 ml methanol and 10 ml de-ionized water. […] 5 ml of the eluate is quantitatively pipetted into a 10 ml volumetric flask and 20 mM hydrochloric acid was added up to 10.00 ml. […]
(§4) In the same way, test samples 1b, 2b, 3b and 4b were prepared with Fe2(SO4)3 instead of FeSO4. […] The amounts of free Fe^2+ or Fe^3+ were determined by the method described above.

[2] = Chelating capacity: free Fe3+ by ion chromatography; format: physicochemical; details: test samples b: Fe2(SO4)3 instead of FeSO4, mixed 1:1 with test solution, 10 minutes at 37° C.; iron alone 0.50
From the text: as §1, §2, §3, §4

[3] = test system: skin of volunteer subjects (skin types III or IV), UV-A radiation; assay: UV-A protection test on volunteer subjects (MPD, SPF); format: in vivo, human; details: one value per volunteer
Procedure: The test is performed on volunteer subjects with normal skin types III (Burns moderately, tans gradually) or IV (Burns minimally; tans well). The subjects have no history of photo-sensitivity, are not using systematic medications and have not been exposed to direct sunlight for the previous 6 weeks.
Two test sites of 5×10 cm, each test site divided in 6 sub-sites, are marked on the back of the subjects between the waist line and the shoulder blades. One test site is not treated and therefor unprotected. On the other test site 100 mg sunscreen product is applied uniformly to the skin so that the amount of the UV-absorbing compound applied is about 2 mg per m2. In case of the quercetin-gelatin compound the amount applied is such that also in this case 2 mg/m2 of the linked quercetin is applied, The applied sunscreen is allowed to dry for about 15 minutes.
A series of six doses of UV-A radiation, increasing in energy is applied to each test site using a UV-A Sellas Sun 2000 (irradiance about 50 milliWatt/cm^2 at 30 cm). […]
The MPD (minimal pigmenting dose) of each test site is determined visually after 3 hours of exposure. The MPD is defined as the quantity of radiation energy required to produce the first unambiguous pigmented reaction.
The SPF (Sun protection factor) is calculated as the quotient of […].

[4] = test system: skin (buttocks) of three volunteers, epidermis; assay: Penetration depth into the skin (color reaction on biopsy slices); format: in vivo; details: human
From the text: The essential condition is the existence of a specific detection method, which can be used to visualize the presence of particular sunscreen component. In case of quercetin one can take advantage of the existence of ortho dihydroxybenzene (catechol) configuration on the benzene ring B. Different colorimetric methods for catechols have been described. We choose the reaction described in J. Invest Dermatol., 70:197, 1978, (S. Pavel et al.).
Skin penetration study were executed using the following preparations:
1. Quercetin (1%) in cremor cetomacrogolis FNA (CMC)
2. Querceti-gelatin (small molecular weight fraction) (10-20%) in CMC.
3. Quercetin-gelatin (large molecular weight fraction) (10-20%) in CMC.
4. Catechol (1%) (as a penetration marker) in CMC.
The preparations were applied to the skin (buttocks) of three volunteers. The penetration times were 30 min, 1 hour and 3 hours. After each penetration time a biopsy (4 mm) was taken after local anesthesia. The biopsy material was frozen in liquid nitrogen and kept for the further analysis.
The biopsy material were cut in consecutive slices of 8 um thick The slices were incubated in a selected solution to achieve the color characteristic of catecholic structures. The depth of penetration was measured visually and expressed as a percentage penetrated epidermis, as follows: […]

Row | Penetration depth, percentage penetrated epidermis ([4]; 30 min) | Penetration depth, percentage penetrated epidermis ([4]; 1 h) | Penetration depth, percentage penetrated epidermis ([4]; 3 h) | SMILES | Amount of free Fe^2+ [1] | Amount of free Fe^3 [2] | MPD (minimal pigmenting dose), protected ([3]; protected test site, about 2 mg per m2 UV-absorbing compound (linked quercetin) applied, UV-A doses 33 to 8 joule/cm^2, determined visually after 3 hours) | SPF (Sun protection factor) ([3]; quotient of the MPDs of protected and unprotected skin, UV-A)
1 | 30% | 50% | 80% | O=c1c(O)c(-c2ccc(O)c(O)c2)oc2cc(O)cc(O)c12 [Quercetin, quercetin] | 0.16 millimol per liter | 0.20 millimol per liter | 14 Joule/cm^2 and 19 Joule/cm^2 | 1.8 and 2.4
2 | 40% | 60% | 90% | Oc1ccccc1O [Catechol (1%), Catechol] | – | – | – | –
